# Values of other authors as cited in PMC12299598 (Pharmaceuticals, 2025).
# Where two headings read alike, the source gives them in different places.
# Experiments:
# CYP3A4 = tested on: CYP3A4; design: method as in PMID 1764870
# [1] = tested on: patients exposed to ibrutinib
# [2] = tested on: patients treated with ibrutinib; design: method as in PMID 29419429
# [3] = design: method as in PMID 38955074
# BTK = conditions: lower than ibrutinib
compound,measurement,setting,value
COc1ccc2[nH]c([S+]([O-])Cc3ncc(C)c(OC)c3C)nc2c1 (stereo not shown) [omeprazole],CYP3A4 inhibitor strength,CYP3A4,weak
C=CC(=O)N1CCC[C@@H](n2nc(-c3ccc(Oc4ccccc4)cc3)c3c(N)ncnc32)C1 [ibrutinib],Cardiovascular deaths linked to ibrutinib,[1],303
same,Mortality rate of cardiovascular ADRs,[1]; CNS events and heart failure,20%
same,Mortality rate of cardiovascular ADRs,[1]; supraventricular and ventricular arrhythmias,8%
same,Mortality rate,[1]; supraventricular arrhythmias with concurrent CNS events,28.8%
same,Toxicity leading to discontinuation: arthralgia,[2]; front-line ibrutinib,41.6%
same,Toxicity leading to discontinuation: atrial fibrillation,[2]; front-line ibrutinib,25%
same,Toxicity leading to discontinuation: rash,[2]; front-line ibrutinib,16.7%
same,Toxicity leading to discontinuation: atrial fibrillation,[2]; relapsed/refractory population,12.3%
same,Toxicity leading to discontinuation: bleeding,[2]; relapsed/refractory population,9%
same,Toxicity leading to discontinuation: diarrhea,[2]; relapsed/refractory population,6.6%
same,Toxicity leading to discontinuation: infection,[2]; relapsed/refractory population,10.7%
same,Toxicity leading to discontinuation: pneumonitis,[2]; relapsed/refractory population,9.9%
same,Permeability,[3],high
same,Solubility,[3],low
same,Absolute oral bioavailability,fasting conditions,3.9%
same,Time to peak concentration,oral administration,1 to 2 h
same,Absolute oral bioavailability,with standard breakfast,8.4%
Nc1ncnc2c1c(-c1ccc(Oc3ccccc3)cc1)nn2C1CCCN(C(=O)C(O)CO)C1 (stereo not shown) [dihydrodiol metabolite],BTK inhibitory activity relative to ibrutinib,BTK,15 fold
